Test results from US20260356804A1, “SODIUM CHANNEL BLOCKING COMPOUNDS, DERIVATIVES THEREOF, AND METHODS OF THEIR USE” (LATIGO BIOTHERAPEUTICS, INC., priority 2022, published 2026).
Like-named read-outs stand apart in the source and are kept apart here. One block for each compound: values may come before it.

Molecular target: T1, human Nav1.8/b3 (Homo sapiens, UniProt Q9Y5Y9)
T1 construct: expressed in transfected cells; host or cells: CHO
Assay: Compound Profiling Human NaV1.8/β3 Cell Line—SyncroPatch384PE Assay (automated patch clamp, stably transfected CHO cells)
Type: cell-based
Conditions: Nav1.8/b3 CHO cells

[1] = P1 (IC50, resting state block), P1 measurement, resting state block, holding potential −120 mV, third set of compounds
[2] = P2 (IC50, inactivated state block), P2 measurement, inactivated state block, inactivation step −35 mV 10 sec, third set of compounds
[3] = P1 (IC50, resting state block), P1 measurement, resting state block, holding potential −120 mV, first set of compounds
[4] = P2 (IC50, inactivated state block), P2 measurement, inactivated state block, inactivation step −35 mV 10 sec, first set of compounds
[5] = P1 (IC50, resting state block), P1 measurement, resting state block, holding potential −120 mV, fourth set of compounds
[6] = P2 (IC50, inactivated state block), P2 measurement, inactivated state block, inactivation step −35 mV 10 sec, fourth set of compounds
[7] = P1 (IC50, resting state block), P1 measurement, resting state block, holding potential −120 mV, second set of compounds
[8] = P2 (IC50, inactivated state block), P2 measurement, inactivated state block, inactivation step −35 mV 10 sec, second set of compounds
[9] = P1 measurement, resting state block, holding potential −120 mV, third set of compounds, read-out: P1 (IC50, resting state block)
[10] = P2 measurement, inactivated state block, inactivation step −35 mV 10 sec, third set of compounds, read-out: P2 (IC50, inactivated state block)

T1 sequence (Q9Y5Y9 whole entry): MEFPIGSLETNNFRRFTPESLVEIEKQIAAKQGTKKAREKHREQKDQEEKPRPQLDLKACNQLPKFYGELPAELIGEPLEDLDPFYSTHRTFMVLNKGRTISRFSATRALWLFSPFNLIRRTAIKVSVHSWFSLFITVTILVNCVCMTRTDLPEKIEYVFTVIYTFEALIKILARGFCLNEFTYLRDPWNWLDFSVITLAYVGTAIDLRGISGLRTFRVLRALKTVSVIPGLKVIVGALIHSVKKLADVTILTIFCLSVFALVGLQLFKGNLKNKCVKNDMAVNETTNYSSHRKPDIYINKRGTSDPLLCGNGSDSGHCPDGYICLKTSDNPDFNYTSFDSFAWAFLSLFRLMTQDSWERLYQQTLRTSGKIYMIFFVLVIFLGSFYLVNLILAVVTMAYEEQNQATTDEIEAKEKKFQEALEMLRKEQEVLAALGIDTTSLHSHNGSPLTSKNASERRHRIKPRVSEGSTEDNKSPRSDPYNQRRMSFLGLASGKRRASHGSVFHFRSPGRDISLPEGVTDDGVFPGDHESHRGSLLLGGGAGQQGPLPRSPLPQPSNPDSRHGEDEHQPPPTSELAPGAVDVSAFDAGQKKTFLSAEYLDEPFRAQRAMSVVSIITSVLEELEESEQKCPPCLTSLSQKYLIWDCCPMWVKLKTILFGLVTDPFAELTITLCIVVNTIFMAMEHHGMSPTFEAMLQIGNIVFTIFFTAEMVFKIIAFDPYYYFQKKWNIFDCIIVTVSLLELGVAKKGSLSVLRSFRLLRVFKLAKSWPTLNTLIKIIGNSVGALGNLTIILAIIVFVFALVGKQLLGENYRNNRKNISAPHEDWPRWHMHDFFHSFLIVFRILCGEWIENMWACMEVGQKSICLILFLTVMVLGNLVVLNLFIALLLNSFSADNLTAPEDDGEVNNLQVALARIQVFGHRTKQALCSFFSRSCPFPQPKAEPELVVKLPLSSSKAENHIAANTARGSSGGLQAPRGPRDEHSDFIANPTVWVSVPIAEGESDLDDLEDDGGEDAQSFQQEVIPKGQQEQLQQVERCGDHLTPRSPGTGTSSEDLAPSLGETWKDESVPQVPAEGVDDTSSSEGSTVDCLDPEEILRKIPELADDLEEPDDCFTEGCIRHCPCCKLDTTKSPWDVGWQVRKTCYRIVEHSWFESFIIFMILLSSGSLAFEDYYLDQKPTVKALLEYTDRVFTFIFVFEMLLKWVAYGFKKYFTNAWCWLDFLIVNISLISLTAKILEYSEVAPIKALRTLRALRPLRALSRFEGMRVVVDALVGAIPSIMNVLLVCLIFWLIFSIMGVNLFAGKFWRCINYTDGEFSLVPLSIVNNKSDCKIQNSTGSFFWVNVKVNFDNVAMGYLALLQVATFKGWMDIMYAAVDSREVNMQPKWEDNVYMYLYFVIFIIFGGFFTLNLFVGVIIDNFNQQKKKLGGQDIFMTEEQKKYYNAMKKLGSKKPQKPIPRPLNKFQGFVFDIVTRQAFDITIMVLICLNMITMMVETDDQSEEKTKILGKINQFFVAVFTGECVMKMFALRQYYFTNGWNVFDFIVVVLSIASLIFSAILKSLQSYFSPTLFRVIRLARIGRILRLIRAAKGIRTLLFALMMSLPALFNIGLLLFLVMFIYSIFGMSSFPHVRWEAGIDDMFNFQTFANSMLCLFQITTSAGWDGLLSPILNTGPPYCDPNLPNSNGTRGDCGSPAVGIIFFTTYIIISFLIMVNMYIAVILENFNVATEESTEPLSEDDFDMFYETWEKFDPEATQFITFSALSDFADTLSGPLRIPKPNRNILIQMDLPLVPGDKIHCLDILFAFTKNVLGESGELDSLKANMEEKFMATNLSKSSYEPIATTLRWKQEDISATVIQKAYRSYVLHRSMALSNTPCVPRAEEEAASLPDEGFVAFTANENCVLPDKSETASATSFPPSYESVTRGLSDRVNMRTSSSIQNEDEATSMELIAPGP
T1 sequence (Q9NY72 23-215 partner): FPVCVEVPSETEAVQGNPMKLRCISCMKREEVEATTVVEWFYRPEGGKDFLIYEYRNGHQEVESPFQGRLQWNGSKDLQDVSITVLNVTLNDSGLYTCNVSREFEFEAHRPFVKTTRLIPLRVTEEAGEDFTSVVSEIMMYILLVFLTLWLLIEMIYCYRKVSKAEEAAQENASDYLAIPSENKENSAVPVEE

SMILES: Cc1nc(F)ccc1Oc1cc(C(F)(F)F)c(Cl)c(C)c1C(=O)Nc1ccnc([S@](C)(=N)=O)c1 [Example 65A]
IC50 [3]: < 5 nM
IC50 [4]: < 5 nM

SMILES: Cc1nc(F)ccc1Oc1nc(C(F)(F)F)c(Cl)c(C)c1C(=O)Nc1cccc([S@](C)(=N)=O)c1 [Example 35C, (R)-5-chloro-2-((6-fluoro-2-methylpyridin-3-yl)oxy)-4-methyl-N-(3-(S-methylsulfonimidoyl)phenyl)-6-(trifluoromethyl)nicotinamide]
IC50 [1]: < 5 nM
IC50 [2]: < 5 nM

SMILES: Cc1nc(F)ccc1Oc1cc(C(F)(F)F)c(Cl)cc1C(=O)Nc1ccnc([S@](C)(=N)=O)c1 (single isomer, unassigned) [Example 6A]
IC50 [3]: < 5 nM
IC50 [4]: < 5 nM

SMILES: Cc1nc(F)ccc1Oc1ncc(I)c(C)c1C(=O)Nc1cccc([S@](C)(=N)=O)c1 [Example 122C]
IC50 [1]: 5 to 50 nM
IC50 [2]: 5 to 50 nM

SMILES: Cc1nc(F)ccc1Oc1ncc(C(F)(F)F)c(C)c1C(=O)Nc1cccc([S@@](C)(=O)=NC(=O)[C@@H]2C[C@H](O)CN2)c1 [Example 27D, 2-((6-fluoro-2-methylpyridin-3-yl)oxy)-N-(3-((R)—N-((2S,4S)-4-hydroxypyrrolidine-2-carbonyl)-S-methylsulfonimidoyl)phenyl)-4-methyl-5-(trifluoromethyl)nicotinamide]
IC50 [5]: < 5 nM
IC50 [6]: < 5 nM

SMILES: Cc1nc(F)ccc1Oc1cc(C(F)(F)F)c(Cl)cc1C(=O)Nc1cccc([S@@](C)(=O)=NC(=O)C(C)(C)N)c1 [Example 7B, (R)—N-(3-(N-(2-amino-2-methylpropanoyl)-S-methylsulfonimidoyl)phenyl)-5-chloro-2-((6-fluoro-2-methylpyridin-3-yl)oxy)-4-(trifluoromethyl)benzamide]
IC50 [7]: < 5 nM
IC50 [8]: < 5 nM

SMILES: Cc1nc(F)ccc1Oc1cc(C(F)(F)F)c(Cl)cc1C(=O)Nc1cccc([S@@](C)(=O)=NC(=O)[C@@H](C)O)c1 [Example 1B, 5-chloro-2-((6-fluoro-2-methylpyridin-3-yl)oxy)-N-(3-((R)—N—((R)-2-hydroxypropanoyl)-S-methylsulfonimidoyl)phenyl)-4-(trifluoromethyl)benzamide]
IC50 [7]: < 5 nM
IC50 [8]: < 5 nM

SMILES: CNCC(=O)N=[S@](C)(=O)c1cccc(NC(=O)c2c(Oc3ccc(F)nc3C)nnc(C(F)(F)F)c2C)c1 [Example 25D, (R)-3-((6-fluoro-2-methylpyridin-3-yl)oxy)-5-methyl-N-(3-(S-methyl-N-(methylglycyl)sulfonimidoyl)phenyl)-6-(trifluoromethyl)pyridazine-4-carboxamide]
IC50 [5]: < 5 nM
IC50 [6]: < 5 nM

SMILES: Cc1nc(F)ccc1Oc1cc(C(F)(F)F)c(Cl)c(C)c1C(=O)Nc1cccc([S@@](C)(=N)=O)c1 [Example 66A]
IC50 [3]: < 5 nM
IC50 [4]: < 5 nM

SMILES: Cc1nc(F)ccc1Oc1cc(C(F)(F)F)c(Cl)cc1C(=O)Nc1ccc(F)c([S+](C)[O-])c1 (stereo not drawn) [Example 69A]
IC50 [3]: < 5 nM
IC50 [4]: < 5 nM

SMILES: Cc1nc(F)ccc1Oc1ncc(C(F)(F)F)c(C)c1C(=O)Nc1cccc([S@@](C)(=O)=NC(=O)[C@@H]2CCCO2)c1 [Example 7D, 2-((6-fluoro-2-methylpyridin-3-yl)oxy)-4-methyl-N-(3-((R)—S-methyl-N—((S)-tetrahydrofuran-2-carbonyl)sulfonimidoyl)phenyl)-5-(trifluoromethyl)nicotinamide]
IC50 [5]: < 5 nM
IC50 [6]: < 5 nM

SMILES: Cc1nc(F)ccc1Oc1cc(C(F)(F)F)ccc1C(=O)Nc1cccc([S@@](C)(=O)=NC(=O)[C@@H](C)N)c1 [Example 9B, N-(3-((R)—N-(D-alanyl)-S-methylsulfonimidoyl)phenyl)-2-((6-fluoro-2-methylpyridin-3-yl)oxy)-4-(trifluoromethyl)benzamide]
IC50 [7]: < 5 nM
IC50 [8]: < 5 nM

SMILES: CNCC(=O)N=[S@](C)(=O)c1cccc(NC(=O)c2c(Oc3ccc(F)nc3C)ccc(C(F)(F)F)c2C)c1 [Example 25B]
IC50 [7]: < 5 nM
IC50 [8]: < 5 nM

SMILES: Cc1nc(F)ccc1Oc1ncc(C(F)(F)F)c(C)c1C(=O)Nc1cccc([S@@](C)(=O)=NC(=O)[C@@H]2C[C@@H](O)CN2)c1 [Example 17D, 2-((6-fluoro-2-methylpyridin-3-yl)oxy)-N-(3-((R)—N-((2S,4R)-4-hydroxypyrrolidine-2-carbonyl)-S-methylsulfonimidoyl)phenyl)-4-methyl-5-(trifluoromethyl)nicotinamide]
IC50 [5]: < 5 nM
IC50 [6]: < 5 nM

SMILES: Cc1nc(F)ccc1Oc1cc(C(F)(F)F)c(Cl)cc1C(=O)Nc1cccc([S@@](C)(=O)=NC(=O)CN)c1 [Example 4B, (R)-5-chloro-2-((6-fluoro-2-methylpyridin-3-yl)oxy)-N-(3-(N-glycyl-S-methylsulfonimidoyl)phenyl)-4-(trifluoromethyl)benzamide]
IC50 [7]: < 5 nM
IC50 [8]: < 5 nM

SMILES: Cc1nc(F)ccc1Oc1nc(C(F)(F)F)c(Cl)c(C)c1C(=O)Nc1ccc(F)c([S@@](C)(=N)=O)c1 [Example 94C]
IC50 [1]: 5 to 50 nM
IC50 [2]: 5 to 50 nM

SMILES: Cc1nc(F)ccc1Oc1cc(C(F)(F)F)c(Cl)cc1C(=O)Nc1cccc(C(N)=O)c1 [Example 73A]
IC50 [3]: < 5 nM
IC50 [4]: < 5 nM

SMILES: Cc1nc(F)ccc1Oc1ccc(C(F)(F)F)c(C)c1C(=O)Nc1cccc([S@@](C)(=O)=NC(=O)CN)c1 [Example 26B]
IC50 [7]: < 5 nM
IC50 [8]: < 5 nM

More lines, now with the values ahead:

IC50 [1]: 5 to 50 nM
IC50 [2]: 5 to 50 nM
SMILES: Cc1nc(F)ccc1Oc1ncc(-c2ccc(F)c(F)c2)c(C)c1C(=O)Nc1cccc(S(C)(=N)=N)c1 [Example 124C]

IC50 [3]: < 5 nM
IC50 [4]: < 5 nM
SMILES: Cc1nc(F)ccc1Oc1cc(C(F)(F)F)c(Cl)cc1C(=O)Nc1ccc(F)c([S@](C)(=N)=O)c1 [Example 71A]

IC50 [9]: 5 to 50 nM
IC50 [10]: 5 to 50 nM
SMILES: Cc1nc(F)ccc1Oc1ncc(C(F)(F)F)c(C)c1C(=O)Nc1ccnc(C(N)=O)c1 [Example 120C]

IC50 [3]: 5 to 50 nM
IC50 [4]: < 5 nM
SMILES: Cc1nc(F)ccc1Oc1cc(C(F)(F)F)c(Cl)cc1C(=O)Nc1ccc(C(N)=O)cc1 [Example 68A]

IC50 [1]: > 200 nM
IC50 [2]: 100 to 200 nM
SMILES: COc1cc(C#N)ccc1Oc1cc(C(F)(F)F)nnc1C(=O)Nc1cccc(S(C)(=O)=O)c1 [Example 38C, 4-(4-cyano-2-methoxyphenoxy)-N-(3-(methylsulfonyl)phenyl)-6-(trifluoromethyl)pyridazine-3-carboxamide]

IC50 [1]: > 200 nM
IC50 [2]: > 200 nM
SMILES: COc1cc(C#N)ccc1Oc1ncc(-c2ccc(C(F)F)cc2)c(C)c1C(=O)Nc1ccnc([S@](C)(=N)=O)c1 [Example 17C, (R)-2-(4-cyano-2-methoxyphenoxy)-5-(4-(difluoromethyl)phenyl)-4-methyl-N-(2-(S-methylsulfonimidoyl)pyridin-4-yl)nicotinamide]

IC50 [7]: 5 to 50 nM
IC50 [8]: 5 to 50 nM
SMILES: Cc1nc(F)ccc1Oc1cc(C(F)(F)F)ccc1C(=O)Nc1cccc([S@@](C)(=O)=NC(=O)[C@H](C)O)c1 [Example 12B, 2-((6-fluoro-2-methylpyridin-3-yl)oxy)-N-(3-((R)—N—((S)-2-hydroxypropanoyl)-S-methylsulfonimidoyl)phenyl)-4-(trifluoromethyl)benzamide]

IC50 [1]: 5 to 50 nM
IC50 [2]: 5 to 50 nM
SMILES: COc1cc(C#N)ccc1Oc1ncc(-c2ccc(C#N)cc2)c(C)c1C(=O)Nc1cccc([S@](C)(=N)=O)c1 [Example 20C, (R)-2-(4-cyano-2-methoxyphenoxy)-5-(4-cyanophenyl)-4-methyl-N-(3-(S-methylsulfonimidoyl)phenyl)nicotinamide]

IC50 [1]: < 5 nM
IC50 [2]: < 5 nM
SMILES: Cc1nc(F)ccc1Oc1ncc(C(F)(F)F)c(C)c1C(=O)Nc1cccc([S@@](C)(=O)=NCCN(C)C)c1 [Example 91C]

IC50 [3]: < 5 nM
IC50 [4]: < 5 nM
SMILES: Cc1nc(F)ccc1Oc1cc(C(F)(F)F)c(Cl)c(F)c1C(=O)Nc1ccnc([S@@](C)(=N)=O)c1 [Example 34A]

IC50 [3]: < 5 nM
IC50 [4]: < 5 nM
SMILES: Cc1nc(F)ccc1Oc1cc(C(F)(F)F)c(Cl)cc1C(=O)Nc1cccc([S@@](C)(=O)=NCCN)c1 [Example 14A, (R)—N-(3-(N-(2-aminoethyl)-S-methylsulfonimidoyl)phenyl)-5-chloro-2-((6-fluoro-2-methylpyridin-3-yl)oxy)-4-(trifluoromethyl)benzamide]

IC50 [1]: < 5 nM
IC50 [2]: < 5 nM
SMILES: Cc1nc(F)ccc1Oc1ncc(-c2ccc(F)c(F)c2)c(C)c1C(=O)Nc1cccc([S@](C)(=N)=O)c1 [Example 6C, (R)-5-(3,4-difluorophenyl)-2-((6-fluoro-2-methylpyridin-3-yl)oxy)-4-methyl-N-(3-(S-methylsulfonimidoyl)phenyl)nicotinamide]

IC50 [9]: < 5 nM
IC50 [10]: < 5 nM
SMILES: Cc1nc(F)ccc1Oc1nc(C2CC2)c(C(F)(F)F)c(C)c1C(=O)Nc1cccc([S@@](C)(=N)=O)c1 [Example 107C]

IC50 [3]: < 5 nM
IC50 [4]: < 5 nM
SMILES: Cc1nc(F)ccc1Oc1cc(C(F)(F)F)c(Cl)c(F)c1C(=O)Nc1cccc([S@](C)(=N)=O)c1 [Example 43A]

IC50 [9]: > 200 nM
IC50 [10]: > 200 nM
SMILES: Cc1nc(F)ccc1Oc1c(C2CC2)ncc(F)c1C(=O)Nc1cccc([S@](C)(=N)=O)c1 [Example 37C, (R)-2-cyclopropyl-5-fluoro-3-((6-fluoro-2-methylpyridin-3-yl)oxy)-N-(3-(S-methylsulfonimidoyl)phenyl)isonicotinamide]
